Measured values taken from PubChem BioAssay (NCI).
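Step 1: Grow cells in 96-well plates. Step 2: Expose to compound for 48 hours at 5 concentrations. Step 3: Interpolate endpoints linearly; if unreached, use highest concentration. Here, GI50 denotes the concentration required for 50% inhibition of growth. Definition used: TGI = concentration required for complete inhibition of growth.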

What was measured:
Assay in all cases: inhibition of tumour cell growth, NCI panel, 48 h
K-562 leukemia = system: K-562 leukemia
SR leukemia = system: SR leukemia
HT29 colon = system: HT29 colon
LOX IMVI melanoma = system: LOX IMVI melanoma
U251 CNS = system: U251 CNS
SW-620 colon = system: SW-620 colon
CCRF-CEM leukemia = system: CCRF-CEM leukemia
SK-MEL-5 melanoma = system: SK-MEL-5 melanoma
SNB-75 CNS = system: SNB-75 CNS
PC-3 prostate = system: PC-3 prostate

Structure (SMILES)	TGI (K-562 leukemia) [µM]	TGI (SR leukemia) [µM]	TGI (HT29 colon) [µM]	TGI (LOX IMVI melanoma) [µM]	TGI (U251 CNS) [µM]	TGI (SW-620 colon) [µM]	TGI (CCRF-CEM leukemia) [µM]	TGI (SK-MEL-5 melanoma) [µM]	TGI (SNB-75 CNS) [µM]	GI50 (U251 CNS) [µM]	GI50 (K-562 leukemia) [µM]	GI50 (CCRF-CEM leukemia) [µM]	GI50 (SR leukemia) [µM]	GI50 (HT29 colon) [µM]	GI50 (SK-MEL-5 melanoma) [µM]	GI50 (SNB-75 CNS) [µM]	GI50 (LOX IMVI melanoma) [µM]	GI50 (SW-620 colon) [µM]	GI50 (PC-3 prostate) [µM]	TGI (PC-3 prostate) [µM]
C=CC(=O)NCCSCCCOC1(C(=O)O)CC(O)C(NC(C)=O)C(C(O)C(O)CO)O1 (configuration not stated)	> 100	> 100	> 100	> 100	> 100	> 100														
CC1=C(O)c2cn(C)cc2C(=O)C1=O	> 100	> 100	> 100	> 100	> 100	> 100	> 100	> 100	> 100											
CN(C)c1ccc(/C=C/C(=O)[O-])cc1.CN(C)c1ccc(/C=C/C(=O)[O-])cc1.[Cu+2]	> 100		> 100	> 70.8	> 100	> 100	> 100	93.5	> 100	37.2										
COC(=O)CCC(NC(=S)N/N=C/c1ccccn1)C(=O)OC (configuration not stated)	> 100	> 100	> 100	> 100	> 100	> 100	> 100	> 100	> 100											
O=C1/C(=N\O)c2ccccc2S1(=O)=O	> 100	> 100	> 100	> 100	> 100	> 100	> 100	> 100	> 100											
C#CCNC(=O)N(CC#C)N=O	> 100		> 100	> 100	> 100	> 100	> 100	> 100	> 100											
N.N.NCCCCCN.O=C([O-])CCl.O=C([O-])CCl.O=C([O-])CCl.O=C([O-])CCl.[Pt+4].[Pt+4]	> 100	16.8	42.4	> 100	40.6	> 100	> 100	18.3	11.8	5.06	37.2	1.71	1.73	9.87	4.68	0.996	5.93	4.58		
Nc1c(-c2cn(Cc3ccccc3)c3ccccc23)[n+]([O-])c2ccccc2[n+]1[O-]	> 100		> 100	> 100	> 100	> 100	> 100	51.3	61.6											
CC1=Nc2ccccc2NC(c2ccoc2)C1 (configuration not stated)	> 100	> 100	> 100	> 100	> 100	> 100	> 100	> 100	> 100											
C[C@]12CCc3nc(Nc4cccc(O)c4)sc3C1=CC[C@@H]1[C@@H]2CC[C@]2(C)/C(=N\NC(N)=S)CC[C@@H]12	> 100		3.73	2.85	2.96	3.8	> 100	3.63	7.01	1.15	2.15	1.97		1.52	1.8	0.792	1.52	1.91	1.7	6.35
Cc1cc([N+](=O)[O-])ccc1NC(=O)C(=O)C(C(=O)c1ccccc1-c1ccccc1)C1OC(=O)c2ccccc21 (configuration not stated)	89.3	54.7	41.9		26	36.6	> 100	28.7												
O=C(c1ccco1)c1nc2cc(C(F)(F)F)ccc2nc1C(F)(F)F	> 100	> 100	> 100	> 100	> 100	> 100		> 100	62.7	> 100	> 100		40.5	> 100	> 100	18.9	> 100	> 100	> 100	> 100
COc1c(C)cc(O)cc1C=O	> 100		> 100	> 100	> 100	> 100	> 100	> 100	> 100											
O=C1c2[nH]cc(CNC3CN4CCC3CC4)c2C(=O)c2c1c(O)c1ccccc1c2O (configuration not stated)	12.1		38.3	2.31	2.58	0.399	1.56	31.5	44.6	1.21	0.238	0.141		12.5	11.9	16.2	1.05	0.117	1.21	3.41
CC(=O)Nc1ccccc1-c1nc2ccccc2nc1C	> 100	> 100	> 100	> 100	> 100	> 100	> 100	> 100	> 100											
COC(=O)C1=Cc2cc(OC)c(OC)c(OC)c2[C@H](c2cc(OC)c(OC)c(OC)c2)C1C(=O)OC (some centres not stated)	> 100		> 100	> 100	> 100	> 100	> 100	> 100	> 100											
COc1cccc2ccc(C(=O)c3ccccc3)nc12	> 100	> 100		> 100	> 100	> 100	> 100	> 100	> 100											
O=C1CC(c2c(-c3ccccc3)[nH]c3ccccc23)C(=O)N1 (configuration not stated)	> 100		> 100		> 100	> 100	> 100	> 100	> 100											
COc1ccc(OC(C)=O)c2c1CCC=CC2=O	18.6	40.3	33.7	17.5	32.2	28.8	17.1	28.9	29.3											
COC1OC(CO)C(O)C(OC(C)=O)C1NC(=O)N(CCCl)N=O (configuration not stated)	> 100		> 100	> 100		> 100	> 100	> 100	> 100											
